In this assay the target is T1, modified thermophilic polymerase (Therminator 3, from New England BioLabs) (Thermococcus sp., UniProt Q56366, D141A/E143A/L408S/P410V/Y409A).
T1 construct: purchased New England BioLabs
The assay is described as follows: Incorporation of 3′-terminated nucleotides by a modified thermophilic polymerase. Format: biochemical, Thermococcus sp. 9 degrees N-7. Particulars: pH 8.5, nucleotides at 200 nM, 4 mM Mg, 55° C.; polymerase pre-bound to primed DNA template. An excerpt: Another important property of a nucleotide with a reversible terminator (e.g., 3′ cleavable moiety as described herein) is the ability to be rapidly incorporated by a DNA polymerase. Naturally occurring DNA polymerases are typically not capable of incorporating nucleotides modified with reversible terminator (e.g., 3′ cleavable moiety as described herein) at the 3′ position on the ribose of the nucleotide. As known in the art, a number of thermophilic polymerases have been engineered to enable the incorporation of nucleotides modified with 3′ terminators. […] The reaction was carried out in a buffered solution at pH 8.5, with nucleotides at 200 nM concentration, 4 mM Mg, at a temperature of 55° C. The polymerase was pre-bound to the primed DNA template. All three terminated nucleotides are efficiently incorporated by the modified DNA polymerase. The polymerase can be further modified for desired properties such as incorporation rate and accuracy.

The text below walks through data of patent US10738072B1, “Nucleotide analogues” (Singular Genomics Systems, Inc., priority 2018, dated 2020).

Each structure is given as a SMILES string.

T1 sequence (Q56366 whole entry D141A/E143A/L408S/Y409A/P410V): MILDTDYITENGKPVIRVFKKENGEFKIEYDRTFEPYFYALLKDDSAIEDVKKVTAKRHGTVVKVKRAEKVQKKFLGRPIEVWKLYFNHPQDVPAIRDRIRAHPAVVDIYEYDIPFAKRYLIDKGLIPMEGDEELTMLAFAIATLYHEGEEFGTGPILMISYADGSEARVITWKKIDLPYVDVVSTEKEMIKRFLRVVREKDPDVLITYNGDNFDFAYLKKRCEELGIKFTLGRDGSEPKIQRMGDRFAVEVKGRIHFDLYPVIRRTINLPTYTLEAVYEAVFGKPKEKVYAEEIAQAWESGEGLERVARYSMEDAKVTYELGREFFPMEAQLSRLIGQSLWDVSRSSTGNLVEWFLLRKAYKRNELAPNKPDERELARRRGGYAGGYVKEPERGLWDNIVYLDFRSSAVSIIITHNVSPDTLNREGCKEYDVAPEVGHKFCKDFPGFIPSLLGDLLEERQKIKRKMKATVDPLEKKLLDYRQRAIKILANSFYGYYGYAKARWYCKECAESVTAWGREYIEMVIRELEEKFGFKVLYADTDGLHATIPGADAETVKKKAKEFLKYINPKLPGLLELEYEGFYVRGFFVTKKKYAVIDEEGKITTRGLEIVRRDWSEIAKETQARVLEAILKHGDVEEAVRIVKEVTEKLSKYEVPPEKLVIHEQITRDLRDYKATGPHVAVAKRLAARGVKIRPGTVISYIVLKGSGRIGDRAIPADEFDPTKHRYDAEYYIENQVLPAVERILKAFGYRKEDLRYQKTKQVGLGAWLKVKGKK

The compound `CSSCOC1CC(n2cc(C)c(=O)[nH]c2=O)OC1COP(=O)(O)OP(=O)(O)OP(=O)(O)O` (stereo not shown) [RT #1, 3′O—CH2—S—S—CH3] showed an Incorporation half-time of 14 ± 3 s.
